In brackets after ≈: the same amount, converted by molar mass. Activity calls are given as the source filed them. The calls are words filed in the database; no cut-off is given here.
Legend:
[1] = Antimicrobial activity against Helicobacter pylori 26695 ATCC 700392 at 50 ug/ml by disk agar diffusion method; format: functional; settings: read-out: DIZ
[2] = Antimicrobial activity against Helicobacter pylori 26695 ATCC 700392 at 100 ug/ml by disk agar diffusion method; format: functional; settings: read-out: DIZ
AGS [3] = test: Cytotoxicity against human AGS cells assessed as cell viability by MTT assay; format: cell-based
[4] = Antimicrobial activity against Helicobacter pylori 26695 ATCC 700392 at pH 5 by microdilution method; format: functional
[5] = Antimicrobial activity against Helicobacter pylori 26695 ATCC 700392 at pH 7 by microdilution method; format: functional
Helicobacter pylori [6] = test: Antimicrobial activity against metronidazole and clarithromycin-resistant Helicobacter pylori v633 at pH 7 by microdilution method; format: functional
Helicobacter pylori [7] = test: Antimicrobial activity against metronidazole and clarithromycin-resistant Helicobacter pylori v1254 at pH 8 by microdilution method; format: functional
Helicobacter pylori [8] = test: Antimicrobial activity against metronidazole and clarithromycin-resistant Helicobacter pylori v633 at pH 8 by microdilution method; format: functional
Helicobacter pylori [9] = test: Antimicrobial activity against metronidazole and clarithromycin-resistant Helicobacter pylori v1254 at pH 5 by microdilution method; format: functional
Helicobacter pylori [10] = test: Inhibition of Helicobacter pylori invasion to human AGS cells at 20 ug/ml after 6 hrs by gentamicin assay relative to control; format: functional
[11] = Antimicrobial activity against Helicobacter pylori 26695 ATCC 700392 at 800 ug/ml by disk agar diffusion method; format: functional; settings: read-out: DIZ
Helicobacter pylori [12] = test: Antimicrobial activity against metronidazole and clarithromycin-resistant Helicobacter pylori v633 at pH 5 by microdilution method; format: functional
Helicobacter pylori [13] = test: Antimicrobial activity against metronidazole and clarithromycin-resistant Helicobacter pylori v1254 at pH 7 by microdilution method; format: functional
Helicobacter pylori [14] = test: Inhibition of Helicobacter pylori adhesion to human AGS cells at 20 ug/ml after 6 hrs by gentamicin assay relative to control; format: functional
[15] = Antimicrobial activity against Helicobacter pylori 26695 ATCC 700392 at pH 8 by microdilution method; format: functional
Helicobacter pylori [16] = test: Antimicrobial activity against Helicobacter pylori infected in human AGS cells assessed as reduction of tyrosine phosphorylated CagA level translocation after 6 hrs by immunoblot analysis; format: functional, organism-based
Helicobacter pylori [17] = test: Inhibition of Helicobacter pylori adhesion to human AGS cells at 5 ug/ml after 6 hrs by gentamicin assay relative to control; format: functional
Helicobacter pylori [18] = test: Inhibition of Helicobacter pylori invasion to human AGS cells at 5 ug/ml after 6 hrs by gentamicin assay relative to control; format: functional
AGS [19] = test: Inhibition of NFkappaB activation expressed in human AGS cells infected with Helicobacter pylori assessed as inhibition of IL-8 production at 20 ug/ml relative to control; format: cell-based
Helicobacter pylori [20] = test: Inhibition of Helicobacter pylori adhesion to human AGS cells at 10 ug/ml after 6 hrs by gentamicin assay relative to control; format: functional
Helicobacter pylori [21] = test: Inhibition of Helicobacter pylori invasion to human AGS cells at 10 ug/ml after 6 hrs by gentamicin assay relative to control; format: functional
Helicobacter pylori [22] = test: Antimicrobial activity against Helicobacter pylori infected in human AGS cells assessed as reduction of tyrosine phosphorylated CagA level translocation at 20 ug/ml after 6 hrs by immunoblot analysis; format: functional
AGS [23] = test: Inhibition of NFkappaB activation expressed in human AGS cells infected with Helicobacter pylori at 20 ug/ml relative to control; format: cell-based
AGS [24] = test: Inhibition of NFkappaB activation expressed in human AGS cells infected with Helicobacter pylori at 10 ug/ml relative to control; format: cell-based
AGS [25] = test: Inhibition of Helicobacter pylori 26695 ATCC 700392 cytotoxin A-induced vacuolation in human AGS cells after 24 hrs by neutral red uptake assay; format: functional, cell-based
Helicobacter pylori [26] = test: Antimicrobial activity against Helicobacter pylori infected in human AGS cells assessed as inhibition of CagA gene translocation after 6 hrs by immunoblot analysis; format: functional, organism-based
Helicobacter pylori [27] = test: Inhibition of Helicobacter pylori 26695 ATCC 700392 CagA-induced pathogenesis in human AGS cells assessed as reduction of hummingbird phenotype of host cells after 6 hrs; format: functional, cell-based; settings: ATCC 700392 26695
Helicobacter pylori [28] = test: Antimicrobial activity against Helicobacter pylori infected in human AGS cells assessed as inhibition of CagA gene translocation at 20 ug/ml after 6 hrs by immunoblot analysis; format: functional
Helicobacter pylori [29] = test: Inhibition of Helicobacter pylori 26695 ATCC 700392 CagA-induced pathogenesis in human AGS cells assessed as reduction of hummingbird phenotype of host cells at 20 ug/ml after 6 hrs; format: functional; settings: ATCC 700392 26695, AGS

CC1(C)S[C@@H]2[C@H](NC(=O)[C@H](N)c3ccc(O)cc3)C(=O)N2[C@H]1C(=O)O [AMOXICILLIN]
zone of inhibition at 50 µg/mL [1]: 14 mm

COc1cc(Cn2c(-c3cccc(F)c3)nc3cc(C)ccc32)cc(OC)c1OC
zone of inhibition at 100 µg/mL [2]: 0 mm

COc1ccc(-c2nc3ccc(C)cc3n2Cc2cc(OC)c(OC)c(OC)c2)cc1
zone of inhibition at 100 µg/mL [2]: 15 mm

COc1cc(Cn2c(-c3ccccc3)nc3cc(C)c(C)cc32)cc(OC)c1OC
zone of inhibition at 100 µg/mL [2]: 16 mm

COc1cc(Cn2c(-c3cccc4ccccc34)nc3cc(C)ccc32)cc(OC)c1OC
zone of inhibition at 100 µg/mL [2]: 12 mm

COc1cc(Cn2c(-c3ccccc3)nc3cc(F)ccc32)cc(OC)c1OC
zone of inhibition at 100 µg/mL [2]: 17 mm

COc1ccc(-c2nc3cc(C)ccc3n2Cc2cc(OC)c(OC)c(OC)c2)cc1
zone of inhibition at 100 µg/mL [2]: 22 mm
Activity (AGS [3]): Toxic

COc1cccc(-c2nc3cc(C)ccc3n2Cc2cc(OC)c(OC)c(OC)c2)c1
zone of inhibition at 100 µg/mL [2]: 0 mm

COc1cc(Cn2c(-c3ccccc3)nc3ccc(Cl)cc32)cc(OC)c1OC
zone of inhibition at 100 µg/mL [2]: 14 mm

COc1cc(Cn2c(-c3ccc(F)cc3)nc3cc(C)ccc32)cc(OC)c1OC
zone of inhibition at 100 µg/mL [2]: 17 mm

Cc1ncc([N+](=O)[O-])n1CCO [METRONIDAZOLE]
MBC [4]: 6.25 µg/mL (≈ 36.5 µM)
MBC [5]: 12.5 µg/mL (≈ 73 µM)
MBC (Helicobacter pylori [6]): 50 µg/mL (≈ 292 µM)
MBC (Helicobacter pylori [7]): 100 µg/mL (≈ 584 µM)
MBC (Helicobacter pylori [8]): 50 µg/mL (≈ 292 µM)
MBC (Helicobacter pylori [9]): 100 µg/mL (≈ 584 µM)
inhibition at 20 µg/mL (Helicobacter pylori [10]): 20%
zone of inhibition at 800 µg/mL [11]: 7 mm
MBC (Helicobacter pylori [12]): 50 µg/mL (≈ 292 µM)
MBC (Helicobacter pylori [13]): 100 µg/mL (≈ 584 µM)
inhibition at 20 µg/mL (Helicobacter pylori [14]): 20%
MBC [15]: 12.5 µg/mL (≈ 73 µM)

COc1cc(Cn2c(-c3ccc4ccccc4c3)nc3cc(C)ccc32)cc(OC)c1OC
zone of inhibition at 100 µg/mL [2]: 0 mm

COc1ccc(-c2nc3cc(Cl)ccc3n2Cc2cc(OC)c(OC)c(OC)c2)cc1
zone of inhibition at 100 µg/mL [2]: 11 mm

COc1cc(Cn2c(-c3ccccc3)nc3cc(Cl)ccc32)cc(OC)c1OC
zone of inhibition at 100 µg/mL [2]: 11 mm

COc1ccccc1-c1nc2cc(C)ccc2n1Cc1cc(OC)c(OC)c(OC)c1
zone of inhibition at 100 µg/mL [2]: 21 mm
Activity (AGS [3]): Toxic

COc1cc(Cn2c(-c3ccccc3F)nc3cc(C)ccc32)cc(OC)c1OC
MBC [4]: 25 µg/mL (≈ 61.5 µM)
inhibition (Helicobacter pylori [16]): Dose-dependent effect
inhibition at 5 µg/mL (Helicobacter pylori [17]): 6%
MBC [5]: 25 µg/mL (≈ 61.5 µM)
inhibition at 5 µg/mL (Helicobacter pylori [18]): 7%
inhibition (AGS [19]): 85%
MBC (Helicobacter pylori [6]): 12.5 µg/mL (≈ 30.8 µM)
MBC (Helicobacter pylori [7]): 12.5 µg/mL (≈ 30.8 µM)
MBC (Helicobacter pylori [8]): 12.5 µg/mL (≈ 30.8 µM)
inhibition at 10 µg/mL (Helicobacter pylori [20]): 31%
inhibition at 10 µg/mL (Helicobacter pylori [21]): 28%
MBC (Helicobacter pylori [9]): 12.5 µg/mL (≈ 30.8 µM)
inhibition at 20 µg/mL (Helicobacter pylori [22]): 55%
inhibition (AGS [23]): 42%
inhibition (AGS [24]): 14%
inhibition at 20 µg/mL (Helicobacter pylori [10]): 52%
inhibition (AGS [25]): Dose-dependent effect
zone of inhibition at 100 µg/mL [2]: 24 mm
MBC (Helicobacter pylori [12]): 12.5 µg/mL (≈ 30.8 µM)
inhibition (Helicobacter pylori [26]): Dose-dependent effect
Activity (AGS [3]): Non-toxic
MBC (Helicobacter pylori [13]): 12.5 µg/mL (≈ 30.8 µM)
inhibition at 20 µg/mL (Helicobacter pylori [14]): 58%
MBC [15]: 25 µg/mL (≈ 61.5 µM)
inhibition (Helicobacter pylori [27]): Dose-dependent effect
inhibition at 20 µg/mL (Helicobacter pylori [28]): 55%
inhibition at 20 µg/mL (Helicobacter pylori [29]): 98%

COc1cc(Cn2c(-c3ccccc3)nc3cc(C)ccc32)cc(OC)c1OC
zone of inhibition at 100 µg/mL [2]: 22 mm
Activity (AGS [3]): Toxic

COc1cc(Cn2c(-c3cc(F)ccc3F)nc3cc(C)ccc32)cc(OC)c1OC
zone of inhibition at 100 µg/mL [2]: 11 mm

COc1cc(Cn2c(-c3ccc(Cl)cc3Cl)nc3cc(C)ccc32)cc(OC)c1OC
zone of inhibition at 100 µg/mL [2]: 11 mm

CC[C@H]1OC(=O)[C@H](C)[C@@H](O[C@H]2C[C@@](C)(OC)[C@@H](O)[C@H](C)O2)[C@H](C)[C@@H](O[C@@H]2O[C@H](C)C[C@H](N(C)C)[C@H]2O)[C@](C)(OC)C[C@@H](C)C(=O)[C@H](C)[C@@H](O)[C@]1(C)O [CLARITHROMYCIN]
zone of inhibition at 50 µg/mL [1]: 21 mm

COc1ccc(-c2nc3ccc(Cl)cc3n2Cc2cc(OC)c(OC)c(OC)c2)cc1
zone of inhibition at 100 µg/mL [2]: 12 mm

COc1cc(Cn2c(-c3cccc(C)c3)nc3cc(C)ccc32)cc(OC)c1OC
zone of inhibition at 100 µg/mL [2]: 19 mm

COc1cc(Cn2c(-c3cccc(Cl)c3Cl)nc3cc(C)ccc32)cc(OC)c1OC
zone of inhibition at 100 µg/mL [2]: 13 mm

COc1cc(Cn2c(-c3ccccc3C)nc3cc(C)ccc32)cc(OC)c1OC
zone of inhibition at 100 µg/mL [2]: 14 mm

COc1cc(Cn2c(-c3ccc(C#N)cc3)nc3cc(C)ccc32)cc(OC)c1OC
zone of inhibition at 100 µg/mL [2]: 12 mm

COc1cc(Cn2c(-c3ccccc3Cl)nc3cc(C)ccc32)cc(OC)c1OC
zone of inhibition at 100 µg/mL [2]: 21 mm
Activity (AGS [3]): Toxic

COc1cc(Cn2c(-c3ccccc3)nc3ccc(C)cc32)cc(OC)c1OC
zone of inhibition at 100 µg/mL [2]: 21 mm
Activity (AGS [3]): Toxic

COc1cc(Cn2c(-c3ccc(Cl)c(Cl)c3)nc3cc(C)ccc32)cc(OC)c1OC
zone of inhibition at 100 µg/mL [2]: 9 mm

COc1cc(Cn2c(-c3c(F)cccc3F)nc3cc(C)ccc32)cc(OC)c1OC
zone of inhibition at 100 µg/mL [2]: 24 mm
Activity (AGS [3]): Toxic

c1ccc2[nH]cnc2c1 [BENZIMIDAZOLE]
MBC [4]: > 800 µg/mL
MBC [5]: 400 µg/mL (≈ 3390 µM)
MBC (Helicobacter pylori [6]): 400 µg/mL (≈ 3390 µM)
MBC (Helicobacter pylori [7]): 400 µg/mL (≈ 3390 µM)
MBC (Helicobacter pylori [8]): 400 µg/mL (≈ 3390 µM)
MBC (Helicobacter pylori [9]): > 800 µg/mL
inhibition (AGS [23]): Active
inhibition (AGS [25]): Active
zone of inhibition at 100 µg/mL [2]: 0 mm
MBC (Helicobacter pylori [12]): > 800 µg/mL
MBC (Helicobacter pylori [13]): 400 µg/mL (≈ 3390 µM)
MBC [15]: > 800 µg/mL

COc1ccc2nc(-c3ccccc3)n(Cc3cc(OC)c(OC)c(OC)c3)c2c1
zone of inhibition at 100 µg/mL [2]: 0 mm

— ChEMBL document CHEMBL2163213, “Synthesis and bioevaluation of novel 3,4,5-trimethoxybenzylbenzimidazole derivatives that inhibit Helicobacter pylori-induced pathogenesis in human gastric epithelial cells” (Eur J Med Chem, 2012)
